Reference: patent US20110263454A1, “Methods of Identifying Functional Characteristics of Promoters, Transcription Modifying Proteins and Transcription Modulating Agents” (Salk Institute for Biological Studies, priority 2008, published 2011)

How the values were obtained:
[1] = test system: mPer1 promoter; experiment: NHR-promoter luciferase screen, mPer1 promoter; type: cell-based, mouse; details: for Luc. act., normalized to lacZ / Normalized Luc. act., normalized to control: Per1 promoter reporter, co-transfected HR, with or without its ligand; for Normalized Luc. act., normalized to control: relative to control; for luciferase activity normalized to lacZ activity and to a control, mPer1: mPer1 promoter-luciferase, CV-1 cells, NHR +/- ligand, control = 1.00
Experimental: (§1) The use, feasibility, and reproducibility of the functional NHR-promoter screen in a 48-well format have been tested validated. Briefly, there were co-expressed 50 ng of each NHR/NHR homodimer or NHR/RXR heterodimer with 100 ng promoter/luciferase construct and 50 ng of LacZ (as a control for transfection efficiency) in CV-1 cells using Fugene HD (Roche) as a transfection reagent (alternatively or additionally, a CMV-YFP construct can be used as a transfection control). Each of the nuclear hormone receptors that were used in these experiments was cloned into a pcDNA3.1 vector and comprised a C-terminally linked V5H6 tag. Twenty-four hours after transfection, appropriate ligands were added, where applicable, (see Table 5 for various ligands and concentrations and after 48 hrs, samples were assayed for luciferase and LacZ activity. To measure for luciferase activity 15 ul of sample was added to 30 ul of luciferase buffer (20 mM tricine, 1.07 mM MgCarbonate, 2.67 mM MgSulfate, 0.1 mM Naz-EDTA, 5 mM DTT, 5 mM ATP, 0.15 mg/ml CoA, 0.5 mM Luciferin), mixed briefly, and run in a Perkin Elmer Victor 5 luminometer. Thus, the functional NHR-promoter screen was used to observe the transcriptional activity of 29 promoters from various physiological pathways including inflammation, lipid and sugar metabolism, cholesterol transport, xenobiotic metabolism, and circadian rhythm.
(§2) The promoters that facilitate transcription of the indicated gene products that were tested using the protocols described herein are listed in the first row of the table. The nuclear hormone receptors and, where applicable, ligands that were assayed for their transcriptional effects on the promoters are listed in the first column of the table. The data represent the luciferase activity of each sample normalized to both the lacZ activity of that sample and to a control, e.g., no NHR or ligand, as customary in the art. As described previously, these normalizations allow the transcriptional activity of each reporter cell to be compared to other samples.
(§3) Tables 7-40 show the transcriptional effects of the hormone receptors, and, where applicable, ligands (orphan receptors are screened without ligand), on each individual promoter. […] The control data of each table are shown in their last rows.

[2] = test system: Bmal1 promoter; experiment: NHR-promoter luciferase screen, Bmal1 promoter; type: cell-based, mouse; details: for Luc. act., normalized to lacZ / Normalized Luc. act., normalized to control: Bmal1 promoter, HR component without or with ligand; for mBmal1 promoter reporter activity: transcription factor +/- ligand, control = 1.00
Experimental: as §1, §2, §3

[3] = test system: mAgrp promoter; experiment: NHR-promoter luciferase screen, mAgrp promoter; type: cell-based, mouse; details: for Results of assays of transcription factor (+/- ligand) with mAgrp: Table 6d, luciferase activity relative to control (control = 1.00); for Luc. act., normalized to lacZ / Normalized Luc. act., normalized to control: mAgrp promoter, HR component with or without ligand; for Normalized Luc. act., normalized to control: relative to control; for luciferase/LacZ, mAgrp (selected results): mAgrp promoter-luciferase, NHR +/- ligand, control = 1.0
Experimental: as §1, §2, §3

[4] = test system: mDio1 promoter; experiment: NHR-promoter luciferase screen, mDio1 promoter; type: cell-based, mouse; details: for Luc. act., normalized to lacZ / Normalized Luc. act., normalized to control: Dio1, HR component without or with its ligand; for mDio1 promoter reporter activity: transcription factor +/- ligand, control = 1.00
Experimental: as §1, §2, §3

[5] = test system: mAdiponectin promoter; experiment: NHR-promoter luciferase screen, mAdiponectin promoter; type: cell-based, mouse; details: for Luc. act., normalized to lacZ / Normalized Luc. act., normalized to control: Adiponectin, HR component without or with its ligand; for mAdiponectin promoter reporter activity: transcription factor +/- ligand, control = 1.00
Experimental: as §1, §2, §3

[6] = test system: hMyoD promoter; experiment: NHR-promoter luciferase screen, hMyoD promoter; type: cell-based, human; details: for Luc. act., normalized to lacZ / Normalized Luc. act., normalized to control: MyoD promoter reporter, co-transfected HR, without or with its ligand; for Normalized Luc. act., normalized to control: relative to control; for luciferase activity normalized to lacZ activity and to a control, hMyoD: hMyoD promoter-luciferase, CV-1 cells, NHR +/- ligand, control = 1.00
Experimental: as §1, §2, §3

Row | Substance | Luc. act., normalized to lacZ [1] | Normalized Luc. act., normalized to control [1] | luciferase activity normalized to lacZ activity and to a control, mPer1 [1] | Luc. act., normalized to lacZ [2] | Normalized Luc. act., normalized to control [2] | mBmal1 promoter reporter activity [2] | Results of assays of transcription factor (+/- ligand) with mAgrp [3] | Luc. act., normalized to lacZ [3] | Normalized Luc. act., normalized to control [3] | Luc. act., normalized to lacZ [4] | Normalized Luc. act., normalized to control [4] | mDio1 promoter reporter activity [4] | Luc. act., normalized to lacZ [5] | Normalized Luc. act., normalized to control [5] | mAdiponectin promoter reporter activity [5] | Luc. act., normalized to lacZ [6] | Normalized Luc. act., normalized to control [6] | luciferase activity normalized to lacZ activity and to a control, hMyoD [6] | luciferase/LacZ, mAgrp (selected results) [3]
1 | AR: Androsterone Receptor (NR3C4), cDNA driver | 123.5 | 0.9 | 0.86 | 13.5 | 0.9 | 0.86 | 1.15 | 45.8 | 1.2 | 6.4 | 1.4 | 1.43 | 82.7 | 1.3 | 1.32 | 57.5 | 0.9 | 0.91 | 
2 | ERR1: Estrogen Related Receptor α (NR3B1, ERRa), cDNA driver | 197.1 | 1.4 | 1.37 | 13.6 | 0.9 | 0.87 | 1.15 | 45.5 | 1.1 | 6.2 | 1.4 | 1.39 | 49.2 | 0.8 | 0.78 | 69.1 | 1.1 | 1.09 | 
3 | GR: Glucocorticoid Receptor (NR3C1), cDNA driver | 384.1 | 2.7 | 2.67 | 13.2 | 0.8 | 0.84 | 0.55 | 22.0 | 0.6 | 2.5 | 0.6 | 0.55 | 33.2 | 0.5 | 0.53 | 26.4 | 0.4 | 0.42 | 0.6
4 | LXRa: Liver X Receptor α (NR1H3), cDNA driver | 100.6 | 0.7 | 0.70 | 19.7 | 1.3 | 1.26 | 1.58 | 62.5 | 1.6 | 4.7 | 1.1 | 1.06 | 60.7 | 1.0 | 0.97 | 60.1 | 0.9 | 0.95 | 
5 | NR4a1: NR4a1 (NR4A1; NUR77), nuclear hormone receptor cDNA driver | 503.5 | 3.5 | 3.50 | 15.7 | 1.0 | 1.00 | 1.17 | 46.3 | 1.2 | 10.9 | 2.4 | 2.45 | 85.6 | 1.4 | 1.36 | 152.5 | 2.4 | 2.41 | 1.2
6 | PNR: Photoreceptor-specific Nuclear Receptor (NR2E3), cDNA driver | 93.4 | 0.6 | 0.65 | 7.6 | 0.5 | 0.49 | 0.76 | 30.1 | 0.8 | 6.4 | 1.4 | 1.44 | 70.7 | 1.1 | 1.13 | 37.1 | 0.6 | 0.59 | 
7 | PPARa: Peroxisome proliferator activated receptor α (NR1C1), cDNA driver | 180.7 | 1.3 | 1.25 | 8.1 | 0.5 | 0.52 | 1.06 | 42.1 | 1.1 | 4.7 | 1.1 | 1.06 | 40.4 | 0.6 | 0.64 | 63.7 | 1.0 | 1.01 | 
8 | PPARg: Peroxisome proliferator activated receptor γ (NR1C3), cDNA driver | 154.5 | 1.1 | 1.07 | 13.8 | 0.9 | 0.88 | 1.84 | 73.0 | 1.8 | 9.9 | 2.2 | 2.23 | 80.6 | 1.3 | 1.28 | 74.5 | 1.2 | 1.18 | 1.8
